Consider 15 molecules from patent US20170112792A1, “ENHANCED ATRA-RELATED COMPOUNDS DERIVED FROM STRUCTURE-ACTIVITY RELATIONSHIPS AND MODELING FOR INHIBITING PIN1” (Beth Israel Deaconess Medical Center, Inc., priority 2014, published 2017).

Entries after “also recorded” stand apart in the source; their conditions may differ. Non-standard residues stand in square brackets, D forms with d. No end group written: not given here. d(pT) = C[C@H](OP(=O)(O)O)[C@@H](N)C(=O)O; Pip = O=C(O)[C@@H]1CCCCN1

One series addresses GST-FKBP12 (Homo sapiens, UniProt P62942). The series is described as follows: chymotrypsin coupled PPlase activity assay, FKBP12. Format: biochemical.
The test system of the next series is GST-cyclophilin. The series is described as follows: chymotrypsin coupled PPlase activity assay, cyclophilin.
Series [1] addresses T1, GST-Pin1 (Homo sapiens, UniProt Q13526). Description: fluorescence polarization (FP) pTide competition assay / FP-HTS. For orientation: Fluorescence polarisation rises when a labelled molecule tumbles more slowly, as on binding a larger partner.
Excerpt: This sequence was optimized for solubility and binding to GST-PPI. […] Measurements of fluorescence polarization and fluorescence absorbance were made in black 384-well plates (Corning) using a Synergy II plate reader. Compounds were transferred to plates using a custom-built Seiko pin-transfer robot at the Institute for Chemistry and Cell Biology at Harvard Medical School. The assay can tolerate up to 10%/o DMSO.
Molecules that compete with pTide for binding to the active site, e.g., Pin1 substrates, were detected under equilibrium conditions. A Z score was used to identify and rank those molecules that were most competitive with pTide (e.g., that have higher binding affinity). A Z score is defined as Z=(x−μ)/σ, where x is a raw score, μ is the mean of the population, and σ is the standard deviation of the population. Molecules with the most negative Z scores represent those with the highest Pin1 binding affinity. The Z′ value for this assay was around 0.70 and was consistent for day-to-day performance, with a coefficient of variation in the range of 4-5%.
A lower value of Ki is indicative of higher association and, accordingly, higher affinity of the substrate to the protein.
For series [2], the target named is T1, GST-Pin1. The series is described as follows: chymotrypsin coupled PPlase activity assay, Pin1. Format: biochemical. From the text:
where Km is the Michaelis constant for the used substrate, S is the initial concentration of the substrate in the assay, and the IC50 value is of the inhibitor.

Series [3] concerns vector control or Rab2A-overexpressing HMLEs. Description: BFA treatment of HMLE cells (ERGIC53 staining, Erk1/2 blots). Format: cell-based, human. The following applies: 10 μg/ml BFA. From the text:
To elucidate how Rab2A overexpression or its Q58H mutation activates Erk1/2, we first examined whether Rab2A co-localized with Erk1/2. HMLE cells were starved and then stimulated by EGF to induce Erk1/2 phosphorylation. […] Overexpressing Rab2A Q58H at levels similar to the endogenous level also activated and colocalized with Erk1/2 like overexpressing WT Rab2A at 3 times higher levels (FIGS. 45A and 46A). To determine where Rab2A or its Q58H mutant colocalized with Erk1/2 at the perinuclear region, we performed double immunostaining Rab2A and ERGIC53, an ER-Golgi intermediate compartment (ERGIC) marker. Both Rab2A and its Q58H mutant colocalized with Erk1/2 at the ERGIC (FIG. 45B). Thus, overexpressed Rab2A or its Q58H mutant co-localizes with Erk1/2 and promotes Erk1/2 activation at the ERGIC. To examine whether Rab2A's vesicular trafficking function is associated with Erk activation, we used brefeldin A (BFA) to block the trafficking from the ERGIC to ER because BFA dissociates ADP ribosylation factor (ARF) effectors from Golgi and ERGIC membranes, leading to block in both anterograde and retrograde transport.

Series [4] concerns Pin1 and PML-RARα in NB4 cells. Description: immunoblot of Pin1 and PML-RARα in APL NB4 cells. Format: cell-based, human. Conditions: for PML-RARα level in APL cells: 72 hours. For orientation: Immunoblotting shows a protein as a band on a membrane.
Description: For immunoprecipitation and immunoblotting in the examples below, cells were polyethylenimine (PEI)- or lipofemamine-transfected with 8 μg of various plasmids, incubated in 10 cm dishes for 24 hours, and subsequently treatment with drugs as needed. […] After centrifugation at 13,000 g for 10 minutes, one tenth of the supernatant was stored as input, and the remainder was incubated 12 hours with M2 Flag agarose (Sigma). After brief centrifugation, immunoprecipitates were collected, extensively washed with the aforementioned lysis buffer twice, suspended in 2×SDS sample buffer (100 mM Tris-HCl, pH 6.8, 4% SDS, 5% β-mercaptoethanol, 20% glycerol, and 0.1% bromphenol blue), boiled for 10 minutes, and subjected to immunoblotting analysis. […] After electrophoresis, gel was transferred to nitrocellulose membranes using a semidry transfer cell. The transblotted membrane was washed twice with Tris-buffered saline containing 0.1% Tween 20 (TBST). After blocking with TBST containing 5% bovine serum albumin (BSA) for 1 hour, the membrane was incubated with the appropriate primary antibody (diluted 1:1000) in 2% BSA-containing TBST at 4° C. overnight. After incubation with the primary antibody, the membrane was washed three times with TBST for a total of 30 minutes followed by incubation with horseradish peroxidase (HRP)-conjugated goat anti-rabbit or anti-mouse IgG (diluted 1:2500) for 1 hour at room temperature. After three extensive washes with TBST for a total of 30 minutes, the immunoblots were visualized by enhanced chemiluminescence.
Series [5] deals with APL cells isolated from hCG-PML-RARα transgenic mice.
The next series relates to NB4 cells. Description: APL cell differentiation in NB4 cells (Giemsa, FACS CD14/CD11b). It counts as cell-based, human. Conditions: 72 hours.
The next series has as its system human APL NB4 cells. Description: NB4 cell growth. It counts as cell-based. Conditions: co-treatment with ATRA. The protocol:
(§1) Absorbance was determined at 570 nm.

The subject of another series is RAR. The series is described as follows: transactivation of RAR downstream target genes.
Series [6] relates to human normal and breast cancer cell lines. The series is described as follows: cell growth of human normal and breast cancer cell lines. It counts as cell-based. The protocol:
as §1
To test this possibility, we chose breast cancer as a model due to the substantial oncogenic role of Pin1 in vitro and in vivo.

The conditions of series [7]: cited from earlier work.

T1 sequence (Q13526 whole entry): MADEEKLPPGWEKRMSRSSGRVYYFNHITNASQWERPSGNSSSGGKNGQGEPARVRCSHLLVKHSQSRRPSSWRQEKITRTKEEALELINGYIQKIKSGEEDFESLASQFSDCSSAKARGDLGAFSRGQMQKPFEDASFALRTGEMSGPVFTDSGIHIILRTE
Sequence of GST-FKBP12 (P62942 whole entry): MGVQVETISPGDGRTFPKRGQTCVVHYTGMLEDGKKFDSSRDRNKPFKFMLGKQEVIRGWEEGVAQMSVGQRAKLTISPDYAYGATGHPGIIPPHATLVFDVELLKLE

For orientation: Ki means a measure of affinity in units of concentration, obtained from inhibition or displacement. For `CC1=C(/C=C/C(C)=C/C=C/C(C)=C\C(=O)O)C(C)(C)CCC1` [13cRA, (2Z,4E,6E,8E)-3,7-dimethyl-9-(2,6,6-trimethylcyclohexen-1-yl)nona-2,4,6,8-tetraenoic acid], the “inhibition of FKBP12” value on GST-FKBP12 is on record as “did not inhibit”. Also, in the series on GST-cyclophilin, the inhibition of cyclophilin entry was “did not inhibit”. The Ki came to 1160 nM at GST-Pin1 [1] and 2370 nM on GST-Pin1 [2] (Cheng-Prusoff equation, read-out: Ki from PPlase assay). Besides, the “binding to Pin1 in FP assay after longer incubation” value at GST-Pin1 [1] (24 hours incubation vs 0.5 hours) was “difference in binding between 13cRA and ATRA disappears after a longer incubation”. Besides, the “Z score in FP-HTS” value on GST-Pin1 [1] (~8200 compounds screened, competition with pTide) is reported as “lowest Z score”. Also, the “inhibition of PPlase activity of Pin1” value at GST-Pin1 [2] is listed as “fully inhibited”.

For the molecule `C[C@H]1CCC/C=C/[C@@H]2C[C@H](O)C[C@H]2[C@H](O)/C=C/C(=O)O1` [BFA, brefeldin A], the Erk phosphorylation entry in [3] is on record as “did not obviously affect Erk phosphorylation”. Also, in series [3] (30 min), the “ERGIC structure (ERGIC53 staining)” value is given as “ERGIC structures were damaged”.

For `O=C(O[C@@H]1Cc2c(O)cc(O)cc2O[C@@H]1c1cc(O)c(O)c(O)c1)c1cc(O)c(O)c(O)c1` [EGCG], in series [4], the “Pin1 degradation in NB4 cells” value is “inhibited Pin1 without degrading it” and the “PML-RARα level in APL cells” value is listed as “dose-dependently reduced PML-RARα”. In addition, the “condition of treated mice (toxic effects)” value in [5] (mouse, in vivo) was “rather sick”. Further, in series [5] (same regimens), the “PML-RARα in the bone marrow” value is listed as “effectively reduced PML-RARα” and the spleen weights entry is “nearly at basal levels”. In addition, the APL cell differentiation entry in the series on NB4 cells was “neither Pin1 inhibitors nor Pin1 KD induced APL cell differentiation”.

Turning to `CCOC(=O)CN1C(=O)c2ccc3c4c(ccc(c24)C1=O)C(=O)N(CC(=O)OCC)C3=O` [PiB], in [4], the “Pin1 degradation in NB4 cells” value is listed as “inhibited Pin1 without degrading it” and the “PML-RARα level in APL cells” value is recorded as “dose-dependently reduced PML-RARα”. The APL cell differentiation result in the series with NB4 cells is “neither Pin1 inhibitors nor Pin1 KD induced APL cell differentiation”.

With `CCCCCCCOc1cc2c(cc1/C(C)=C/c1ccc(C(=O)O)cc1)C(C)(C)CCS2(=O)=O` [Ro-415253], the “rescue of NB4 cell proliferation suppressed by ATRA” value with human APL NB4 cells is given as “unable to rescue NB4 cell proliferation suppressed by ATRA”. Further, the “restoration of ATRA-mediated Pin1 degradation” value in series [4] (co-treatment with ATRA) is “unable to restore ATRA-mediated Pin1 degradation”. Further, the “transactivation of RAR downstream target genes” value in the series on RAR is “suppresses it”. Further, the “Pin1 binding in FP assay” value at GST-Pin1 [1] was “minimal Pin1 binding”. The “effect on the ability of ATRA to induce Pin1 degradation or inhibit cell growth” value in [6] (breast cancer cells (T47D)) is on record as “no obvious effects”.

`COc1cc(C)c(/C=C/C(C)=C/C=C/C(C)=C/C(=O)O)c(C)c1C` [acitretin]: the “Pin1 binding in FP assay” value on GST-Pin1 [1] is on record as “moderate binding”.

As to `C=C(c1ccc(C(=O)O)cc1)c1cc2c(cc1C)C(C)(C)CCC2(C)C` [bexarotene], the “Pin1 binding in FP assay” value at GST-Pin1 [1] is “marginal binding; also recorded: less potent than ATRA”.

As to `CC1=C(/C=C/C(C)=C/C=C/C(C)=C/C(=O)Nc2ccc(O)cc2)C(C)(C)CCC1` [fenretinide], on GST-Pin1 [1], the “Pin1 binding in FP assay” value is recorded as “less potent than ATRA”.

On to `O=C(O)Cc1c[nH]c2ccccc12` [indo-3-acetic acid], for which, at GST-Pin1 [1], the “Pin1 binding in FP assay” value is given as “neither pravastatin nor indo-3-acetic acid demonstrated any binding”.

Regarding `Clc1cccc(C(c2ccc3[nH]cnc3c2)n2ccnc2)c1` (stereo not shown) [liarazole], the “combination effect with ATRA on inhibition of cell proliferation” value in [6] (AU565 or SKBR3 cells) is listed as “generally additive effects with ATRA”.

In the case of `CC1=C(/C=C/C(C)=C/C=C/C(C)=C/C=O)C(C)(C)CCC1` [retinal], at GST-Pin1 [1], the “Pin1 binding in FP assay” value was “totally inactive”.

With `CC1=C(/C=C/C(C)=C/C=C/C(C)=C/CO)C(C)(C)CCC1` [retinol], the “Pin1 binding in FP assay” value at GST-Pin1 [1] was “totally inactive”.

Turning to `CC(=O)OC/C=C(C)/C=C/C=C(C)/C=C/C1=C(C)CCCC1(C)C` [retinyl acetate], at GST-Pin1 [1], the “Pin1 binding in FP assay” value is “totally inactive”.

`CC1(C)CCC(C)(C)c2cc(NC(=O)c3ccc(C(=O)O)cc3)ccc21` [tamibarotene]: on GST-Pin1 [1], the “Pin1 binding in FP assay” value is “moderate binding”.

As to “Bth-D-phos.Thr-Pip-Nal ([Bth][d(pT)][Pip][Nal]) [pTide]”, the binding selectivity entry with GST-Pin1 [1] (Pin1 PPlase domain vs WW domain vs FKBP12) was “selectively binds Pin1 at its PPlase domain and does not bind to the WW domain of Pin1 or to FKBP12”. For the same molecule, the cell permeability entry in [7] is listed as “low cell permeability”.
